Literature values in patent US20100015233A1, “anti-parasitic compositions” (priority 2006, published 2010).
Converted amounts (≈) assume the structure as drawn.

Tests used:
[1] = in vivo

| half-life [1] | solubility in water | Compound |
| --- | --- | --- |
| 3 to 6 days | – | CCCCN(CCCC)CC(O)c1cc(Cl)cc2c1-c1ccc(Cl)cc1/C2=C/c1ccc(Cl)cc1 (centres unmarked) [Lumefantrine] |
| – | 84 mg/L (≈ 298 µM) | C[C@@H]1CC[C@H]2[C@@H](C)C(=O)O[C@@H]3O[C@@]4(C)CC[C@@H]1[C@]32OO4 [artemisinin] |
